Where two headings read alike, the source gives them in different places.

For one experiment, the target named is T1, hTLR8 (Homo sapiens, UniProt Q9NR97).
T1 construct: host or cells: HEK293 cells stably transfected with hTLR8
T1 sequence (Q9NR97 27-1041): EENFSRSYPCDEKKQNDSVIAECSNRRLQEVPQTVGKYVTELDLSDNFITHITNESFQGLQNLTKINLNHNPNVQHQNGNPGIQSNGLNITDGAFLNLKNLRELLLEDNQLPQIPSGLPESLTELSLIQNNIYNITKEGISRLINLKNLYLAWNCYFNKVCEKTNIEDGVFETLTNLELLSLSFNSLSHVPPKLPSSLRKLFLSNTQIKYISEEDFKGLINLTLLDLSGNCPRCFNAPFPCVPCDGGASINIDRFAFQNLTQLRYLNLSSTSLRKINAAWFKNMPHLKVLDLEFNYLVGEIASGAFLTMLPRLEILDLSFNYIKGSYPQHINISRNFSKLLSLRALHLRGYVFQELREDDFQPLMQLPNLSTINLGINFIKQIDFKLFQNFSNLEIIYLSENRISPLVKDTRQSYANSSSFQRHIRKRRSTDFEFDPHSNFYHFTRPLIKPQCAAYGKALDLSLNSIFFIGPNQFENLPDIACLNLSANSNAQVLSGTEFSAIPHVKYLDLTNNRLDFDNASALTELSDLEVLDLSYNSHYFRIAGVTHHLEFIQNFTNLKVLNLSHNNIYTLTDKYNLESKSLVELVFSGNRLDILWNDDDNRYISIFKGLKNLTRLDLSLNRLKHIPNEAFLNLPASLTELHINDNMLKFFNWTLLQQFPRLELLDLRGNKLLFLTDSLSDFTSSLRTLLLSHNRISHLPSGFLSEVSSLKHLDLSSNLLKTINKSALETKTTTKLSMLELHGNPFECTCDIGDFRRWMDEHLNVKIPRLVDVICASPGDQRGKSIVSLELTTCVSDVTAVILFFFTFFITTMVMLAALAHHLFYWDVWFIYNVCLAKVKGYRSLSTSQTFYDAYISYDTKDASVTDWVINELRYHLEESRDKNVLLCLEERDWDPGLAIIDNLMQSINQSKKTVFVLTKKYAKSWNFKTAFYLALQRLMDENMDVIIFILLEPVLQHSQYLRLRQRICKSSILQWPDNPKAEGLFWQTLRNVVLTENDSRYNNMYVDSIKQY
The experiment can be described thus: HEK-293 hTLR8 transfectant NF-κB SEAP reporter antagonist assay. The experiment is classed as cell-based. Here is the method: The HEK-293 hTLR transfectant assay employs HEK293 cells stably transfected with various hTLRs and transiently co-transfected with a plasmid containing an NF-κB driven secreted embryonic alkaline phosphate (SEAP) reporter gene. Stimulation of TLRs activates their downstream signaling pathways and induces nuclear translocation of the transcription factor NF-κB. Reporter gene activity is then measured using a spectrophotometric assay.
For the TLR8 antagonist assays, cells are transiently transfected with the reporter gene on Day 1 per the supplier's instructions. Antagonist compounds are added to the cultures on Day 2 followed by addition of a TLR8 agonist approximately 2 hours later. Cultures are incubated overnight and SEAP activity is measured on Day 3.
In a typical assay, 50,000 HEK239 hTLR8 cells are seeded per culture well and transiently transfected with the SEAP reporter gene. Antagonists are added to cultures in culture medium and […] DMSO over a concentration range of 0.1 nanomolar to 10 micromolar. TLR8 agonists are added to cultures 2 hours later at a fixed concentration (e.g., 1 micromolar or 10 micromolar of Compound A) and cultures are then incubated for 16-24 hrs at 37° C. in a humidified CO incubator. Antagonists are also evaluated for activity in the absence of agonist.
TLR8 antagonist activity at 25 μM is presented in Table 2, where + denotes a % inhibition of 20-39, ++ denotes a % inhibition of 40-59, +++ denotes a % inhibition of 60-79 and ++++ denotes a % inhibition of 80-99. In some cases, antagonist activity was assessed at lower concentrations, for example, at 8.3, 2.8, or less than 1 μM.
TLR8 antagonist activity was measured in a hTLR8 assay format, measuring IC50 values. Compounds were incubated with hTLR8 reporter cells for two hours, then 1 μM Compound A was added to induce TLR8 overnight. IC50 were then calculated.

Experiment [1] has as its system human peripheral blood mononuclear cells (PBMCs). The experiment in a line: Human PBMC assay: IL-8 production stimulated with CL075 (ELISA). The settings on record: 3 to 1000 nM antagonist 2 h, then CL075 100 ng/mL (400 nM) overnight, FIG. 1, one donor. It counts as cell-based. Here is the method:
PBMCs contain a mixture of cells including monocytes and myeloid dendritic cells (mDCs) that express TLR8. […] The ability of TLR8 antagonists to inhibit […] production in human PBMCs was evaluated. […] Data shown in FIG. 1 are a representative experiment from one donor evaluated in duplicate culture wells. Increasing concentrations (from 3 to 1000 nM) of Compounds 3348, 2987, 3261, 3387, and 3448 (labeled as VTX-3348, VTX-2987, VTX-3261, VTX-3387, VTX-3448 in FIG. 1) were added to human PBMCs (50,000 cells/well in RPMI) and incubated for 2 hours in a 37° C. humidified CO2 incubator. […] At the end of the incubation, cells were centrifuged and cell culture supernatants were analyzed for IL-8 by ELISA (eBiosciene kit) per the manufacturer's instructions. The absorbance (OD 450 nm) representative of IL-8 levels is shown on the y-axis of FIG. 1.
The experiment shown in FIG. 1 was repeated in multiple donors and with additional TLR8 antagonist molecules (see FIG. 2). […] Percent inhibition is shown on the y-axis and concentrations of TLR8 antagonists (3-1000 nM) are shown on the x-axis in FIG. 2.

[2] abbreviates: IC50, nM, vs. VTX-378 1 μM, agonist VTX-378 at 1 μM.

For the molecule `CCCN(CCC)C(=O)C1=Cc2cc(-c3ccc(C(=O)N4CCCC4)cc3)ccc2N=C(N)C1` [Compound 2987], the IC50 at hTLR8 (setting [2]) is less than 1000 nM; on hTLR8 (IC50, nM, vs. VTX-378 10 μM, agonist VTX-378 at 10 μM), 1000 to 10000 nM. For the same molecule, the “inhibition of IL-8 production” value in experiment [1] was “reduced in a dose dependent fashion”.
Regarding `CCOC(=O)C1=Cc2cc(-c3ccc(C(=O)N4CCCC4)cc3)ccc2N=C(N)C1(C)C` [Compound 3348], the IC50 was less than 1000 nM on hTLR8 (IC50, nM, vs. 3M002 10 μM, agonist 3M002 at 10 μM); less than 1000 nM at hTLR8 (setting [2]); less than 1000 nM at hTLR8 (agonist VTX-378 at 0.5 μM, read-out: IC50, nM, vs. VTX-378 0.5 μM). In addition, in experiment [1], the “inhibition of IL-8 production” value was “reduced in a dose dependent fashion”.

The values above are taken from patent US20140088085A1, “Substituted Benzoazepines As Toll-Like Receptor Modulators” (ARRAY BIOPHARMA, INC, priority 2011, published 2014).
